Read-outs that look alike come from different tables or passages of the source.
How the values were obtained:
[1] = tested on: HIV-1 strain Lav.04: T-Tropic; assay: Human PBMC assay, p24 antigen ELISA, HIV1 clinical strain Lav.04; assay type: cell-based
Excerpt: (§1) Anti-HIV Evaluation Using Four HIV1 Clinical Strains.
(§2) Four HIV1 clinical strains, BAL and SF162 (M-tropic), […], and 89.6 (a dual tropic strain), were used in the current study. Here a standardized human peripheral blood mononuclear cell culture (PBMC) assay was used to determine the compound susceptibility of these HIV-1 strains. AZT, an anti-HIV drug in clinical use, was used as a positive control. Briefly, human PBMCs were collected from a donor and stimulated for seven days. The preparations (compound or fraction) were then added to the cultured cells at a wide range of concentrations, and the different HIV-1 strains were used to challenge the cultured cells using 96-well plates. After seven-days of incubation, the supernatants were collected and the HIV p24 levels of the infected cells were determined using a p24 antigen ELISA. The ICsos were calculated by comparing p24 antigen values for the compounds (fraction)-containing wells with those for no drug control wells. In these experiments, AZT was used as positive controls.

[2] = tested on: HIV-1 strain Bal: M-Tropic; assay: Human PBMC assay, p24 antigen ELISA, HIV1 clinical strain Bal; assay type: cell-based
Excerpt: as §1, §2

[3] = tested on: HIV-1 strain 89.6: Dual-Tropic; assay: Human PBMC assay, p24 antigen ELISA, HIV1 clinical strain 89.6; assay type: cell-based
Excerpt: as §1, §2

four HIV-1 strains = assay: Human PBMC assay, p24 antigen ELISA, summary over the four HIV-1 strains; assay type: cell-based; settings: read-out: IC50, depending on the strains
Excerpt: Justiprocumins B (2) and patentiflorin A (3) were further evaluated against a broad spectrum of HIV strains including four HIV1 clinical strains, BAL and SF162 (M-tropic), […], and 89.6 (a dual tropic strain). In these experiments, AZT was used as a positive control. […] It is clear that justiprocumin B (2) and patentification A (3), like AZT, could inhibit the particle production of all four HIV-1 strains effectively in a dose-dependent manner.
as §1, §2

[4] = tested on: HIV-1 strain SF162: M-Tropic; assay: Human PBMC assay, p24 antigen ELISA, HIV1 clinical strain SF162; assay type: cell-based
Excerpt: as §1, §2

HIV replication = assay: Anti-HIV Post-Entry protocol (HIV/HA pseudovirions, luciferase reporter, A549 target cells); assay type: cell-based; settings: for inhibition at 1 µg/mL: Human immunodeficiency virus 1, A549, read-out: inhibition of HIV replication
[5] = tested on: HIV reverse transcription; assay: HIV gene expression of the R/U5 and U5/gag transcripts; assay type: cell-based
Hela cell line = assay: Evaluation of toxicity (CellTiter 96), Hela; assay type: cell-based; settings: at a concentration of 10 μg/mL
Experimental: (§3) Approximately 5000 cells seeded in a 96-well tissue culture plate in DMEM supplemented with FBS and penicillin/streptomycin. DMSO alone or compounds in 100% DMSO were added on the following day at appropriate concentrations and incubated with cells at 37° C. in 5% CO2 for 24 hr. After 24 hr, all media were removed and replaced with 100 μL fresh complete DMEM. After 48 hr post initial addition of DMSO or compound, 20 μL of CellTiter 96 Aqueous One Solution was added per well. After gentle mixing, plates were incubated at 37° C. in 5% CO2 for 4 hr. 25 μL of a 10% SDS solution was added per well and plates were stored at room temperature for approximately 12 hr. Absorbance was then measured at 450 nm using a plate reader.

A549 cell line = assay: Evaluation of toxicity (CellTiter 96), A549; assay type: cell-based, human; settings: at a concentration of 10 μg/mL
Experimental: as §3

[6] = Human immunodeficiency virus 1, PBMC, 168 h, read-out: IC50 Lav.04: T-Tropic, human PBMC, p24 antigen, seven days
[7] = Human immunodeficiency virus 1, BAL, PBMC, 168 h, read-out: IC50 Bal: M-Tropic, human PBMC, p24 antigen, seven days
[8] = Human immunodeficiency virus 1, PBMC, 168 h, read-out: IC50 89.6: Dual-Tropic, human PBMC, p24 antigen, seven days
[9] = Human immunodeficiency virus 1, PBMC
[10] = Human immunodeficiency virus 1, PBMC, 168 h, read-out: IC50 SF162: M-Tropic, human PBMC, p24 antigen, seven days

Cc1cn([C@H]2C[C@H](N=[N+]=[N-])[C@@H](CO)O2)c(=O)[nH]c1=O [AZT, zidovudine, reference compound]
IC50 ([1]; Human immunodeficiency virus 1, PBMC, 168 h, human PBMC, p24 antigen, seven days, read-out: IC50 Lav.04: T-Tropic): 79 nM | IC50 ([2]; Human immunodeficiency virus 1, BAL, PBMC, 168 h, human PBMC, p24 antigen, seven days, read-out: IC50 Bal: M-Tropic): 77 nM | IC50 ([3]; Human immunodeficiency virus 1, PBMC, 168 h, human PBMC, p24 antigen, seven days, read-out: IC50 89.6: Dual-Tropic): 95 nM | IC50 (four HIV-1 strains; Human immunodeficiency virus 1, range over four HIV-1 strains, human PBMC): 77 to 95 nM | IC50 ([4]; Human immunodeficiency virus 1, PBMC, 168 h, human PBMC, p24 antigen, seven days, read-out: IC50 SF162: M-Tropic): 85 nM

COc1cc2c(O[C@@H]3O[C@H](C)[C@@H](O[C@@H]4O[C@H](CO)[C@@H](O)[C@H](O)[C@H]4O)[C@H](OC(C)=O)[C@H]3O)c3c(c(-c4ccc5c(c4)OCO5)c2cc1OC)C(=O)OC3 [Justiprocumin A (1), 9-(1,3-benzodioxol-5-yl)-4-[(3-O-acetyl-6-deoxy-4-O-β-D-glucopyranosyl-β-D-glucopyranosyl)oxy]-6,7-dimethoxy-naphtho[2,3-c]furan-1(3H)-one]
inhibition at 1 µg/mL (HIV replication): > 100%

COc1cc2c(O[C@@H]3O[C@H](C)[C@@H](O[C@@H]4O[C@H](CO)[C@@H](O)[C@H](O)[C@H]4O)[C@H](O)[C@H]3OC(C)=O)c3c(c(-c4ccc5c(c4)OCO5)c2cc1OC)C(=O)OC3 [Justiprocumin B (2), 9-(1,3-benzodioxol-5-yl)-4-[(2-O-acetyl-6-deoxy-4-O-β-D-glucopyranosyl-β-D-glucopyranosyl)oxy]-6,7-dimethoxy-naphtho[2,3-c]furan-1(3H)-one]
IC50 [1, 6]: 21 nM | IC50 [2, 7]: 15 nM | IC50 [3, 8]: 15 nM | IC50 (four HIV-1 strains; [9]): 14 to 21 nM | IC50 [4, 10]: 14 nM | inhibition at 1 µg/mL (HIV replication): > 100%

COc1cc2c(OC3OC(C)C(O)C(O)C3O)c3c(c(-c4ccc5c(c4)OCO5)c2cc1OC)C(=O)OC3 (stereo not shown) [Patentiflorin A (3), patentiflorin A]
IC50 [1, 6]: 24 nM | IC50 ([1]; read-out: IC50 Lav.04: T-Tropic, human PBMC, p24 antigen, seven days, listed as Synthetic patentiflorin A (3)): 32 nM | inhibition of HIV reverse transcription (R/U5 and U5/gag transcripts) [5]: effective inhibitor of HIV reverse transcription | IC50 [2, 7]: 30 nM | IC50 ([2]; read-out: IC50 Bal: M-Tropic, human PBMC, p24 antigen, seven days, listed as Synthetic patentiflorin A (3)): 32 nM | cytotoxicity against Hela (Hela cell line): no apparent cytotoxicity | IC50 [3, 8]: 32 nM | IC50 ([3]; read-out: IC50 89.6: Dual-Tropic, human PBMC, p24 antigen, seven days, listed as Synthetic patentiflorin A (3)): 31 nM | IC50 (four HIV-1 strains; [9]): 24 to 37 nM | cytotoxicity against A549 (A549 cell line): no apparent cytotoxicity | IC50 [4, 10]: 37 nM | IC50 ([4]; read-out: IC50 SF162: M-Tropic, human PBMC, p24 antigen, seven days, listed as Synthetic patentiflorin A (3)): 30 nM | IC50 (HIV replication; Human immunodeficiency virus 1, A549, read-out: anti-HIV activity IC50): < 0.01 µg/mL
